The target in one series is human dopamine D3R (Homo sapiens (Human), UniProt P35462). The series is described as follows: D3R mitogenesis assay: stimulation or inhibition of quinpirole-stimulated mitogenesis in CHO cells. To be noted: inhibition of quinpirole-stimulated mitogenesis. The series is classed as cell-based.
Another series deals with human D3R (Homo sapiens (Human), UniProt P35462). The series is described as follows: Radioligand competition binding, [3H]N-methylspiperone, HEK293 membranes expressing human D3R. The conditions noted are these: for Ki: read-out: D3R Ki ± SEM; for D2/D3: ratio of Ki values. The method, then:
(§1) Binding at dopamine D2-like receptors was determined using previously described methods. […] Upon reaching 80-90% confluence, cells were harvested using pre-mixed Earle's Balanced Salt Solution (EBSS) with […] EDTA (Life Technologies) and centrifuged at 3000 rpm for 10 min at 21° C. The supernatant was removed and the pellet was resuspended in 10 mL hypotonic lysis buffer (5 mM MgCl2.6H2O, 5 mM Tris, pH 7.4 at 4° C.) and centrifuged at 20,000 rpm for 30 min at 4° C. The pellet was then resuspended in fresh EBSS buffer made from 8.7 g/L Earle's Balanced Salts without phenol red (US Biological, Salem, Mass.), 2.2 g/L sodium bicarbonate, pH to 7.4. A Bradford protein assay (Bio-Rad, Hercules, Calif.) was used to determine the protein concentration and membranes were diluted to 500 μg/mL and stored in a −80° C. freezer for later use.
(§2) Radioligand competition binding experiments were conducted using thawed membranes. Test compounds were freshly dissolved in 30% DMSO and 70% H2O to a stock concentration of 100 μM. To assist the solubilization of free-base compounds, 10 μl of glacial acetic acid was added along with the DMSO. Each test compound was then diluted into 13 half-log serial dilutions using 30% DMSO vehicle; final test concentrations ranged from 10 μM to 10 pM. Previously frozen membranes were diluted in fresh EBSS to a 100 μg/mL (for hD2R or hD3R) or 200 μg/mL (hD4R) stock for binding. […] buffer with 0.2 mM sodium metabisulfite, 50 μl of diluted test compound, 100 μl of membranes (10 μg total protein for hD2R or hD3R, 20 μg total protein for hD4R), and 50 μl of [^3H]N-methylspiperone (0.4 nM final concentration; Perkin Elmer). Nonspecific binding was determined using 10 μM butaclamol (Sigma-Aldrich, St. Louis, Mo.) and total binding was determined with 30% DMSO vehicle. All compound dilutions were tested in triplicate and the reaction incubated for one hour at room temperature. The reaction was terminated by filtration through Whatman GF/B filters, presoaked for one hour in 0.5% polyethylenimine, using a Brandel R48 filtering manifold (Brandel Instruments, Gaithersburg, Md.). The filters were washed 3 times with 3 mL of ice cold EBSS buffer and transferred to scintillation vials. […] IC50 values for each compound were determined from dose-response curves and Ki values were calculated using the Cheng-Prusoff equation; these analyses were performed using GraphPad Prism version 5.00 for Windows (GraphPad Software, San Diego, Calif.). Reported Ki values were determined from least three independent experiments.
(§3) The binding affinities of the compounds were evaluated by performing competition binding studies with [^3H]N-methylspiperone using membranes prepared from HEK293 cells expressing either the human D2R or D3R.

In the next series the target is 5-HT2A (Homo sapiens (Human), UniProt P28223). The series is described as follows: 5-HT2A [125I]DOI binding. The conditions noted are these: read-out: 5-HT2A [125I]DOI Ki ± SEM.
Sequence of 5-HT2A (P28223 whole entry, species assumed): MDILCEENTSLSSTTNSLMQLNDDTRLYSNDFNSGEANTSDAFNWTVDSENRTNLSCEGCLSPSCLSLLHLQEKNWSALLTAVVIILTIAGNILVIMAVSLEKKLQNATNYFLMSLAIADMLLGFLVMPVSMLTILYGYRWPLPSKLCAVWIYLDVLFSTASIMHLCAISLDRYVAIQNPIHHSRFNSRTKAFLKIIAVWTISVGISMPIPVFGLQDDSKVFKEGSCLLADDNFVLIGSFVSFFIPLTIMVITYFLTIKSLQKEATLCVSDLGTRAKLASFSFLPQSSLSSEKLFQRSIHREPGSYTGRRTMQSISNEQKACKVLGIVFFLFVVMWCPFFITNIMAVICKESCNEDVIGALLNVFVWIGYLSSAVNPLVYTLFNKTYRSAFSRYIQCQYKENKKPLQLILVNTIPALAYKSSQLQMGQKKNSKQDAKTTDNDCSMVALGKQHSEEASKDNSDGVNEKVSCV
Series [1] is described as follows: Phase I metabolic stability in rat liver microsomes. Format: in vitro ADME. To be noted: phase I metabolic stability in rat liver microsomes. An excerpt: Rat Liver Microsome Metabolic Stability: Test compounds including 3-F analogues (C4a, C4b, C5a, C5b) and 29, 19 as well as the R-, S-enantiomers of C4a, C5a, 29 and 19 were screened for phase I metabolic stability in rat liver microsomes.
(In general: Liver microsomes are a subcellular fraction often used to study metabolism.)

A further series deals with 5-HT2C (Homo sapiens (Human), UniProt P28335). Briefly: 5-HT2C [125I]DOI binding. The conditions noted are these: read-out: 5-HT2C [125I]DOI Ki ± SEM.
Sequence of 5-HT2C (P28335 33-458, species assumed): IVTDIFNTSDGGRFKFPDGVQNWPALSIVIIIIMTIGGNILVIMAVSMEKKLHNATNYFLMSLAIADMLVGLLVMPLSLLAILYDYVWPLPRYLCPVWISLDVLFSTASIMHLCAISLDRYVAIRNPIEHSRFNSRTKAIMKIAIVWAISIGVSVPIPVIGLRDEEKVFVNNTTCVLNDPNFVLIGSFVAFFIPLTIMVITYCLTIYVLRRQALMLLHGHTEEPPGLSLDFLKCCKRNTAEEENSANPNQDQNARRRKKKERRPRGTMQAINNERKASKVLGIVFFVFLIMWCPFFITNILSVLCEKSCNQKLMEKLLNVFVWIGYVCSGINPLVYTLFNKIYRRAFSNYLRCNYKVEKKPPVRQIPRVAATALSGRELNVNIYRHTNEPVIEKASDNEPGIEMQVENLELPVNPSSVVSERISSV
Another series concerns the target 5-HT1A (Homo sapiens (Human), UniProt P08908). The series is described as follows: 5-HT1A [3H]-8-OH-DPAT binding. To be noted: read-out: 5-HT1A [3H]-8-OH-DPAT Ki ± SEM.
Another series addresses human D2R (Homo sapiens (Human), UniProt P14416). Briefly: Radioligand competition binding, [3H]N-methylspiperone, HEK293 membranes expressing human D2R. The conditions noted are these: read-out: D2R Ki ± SEM. The method, then:
as §1, §2, §3
(In a radioligand displacement assay an active substance lowers the binding of a labelled ligand.)

A further series concerns the target human D4R (Homo sapiens (Human), UniProt P21917). The series is described as follows: Radioligand competition binding, [3H]N-methylspiperone, HEK293 membranes expressing human D4R. To be noted: Table 1A; for Ki: [3H]N-methylspiperone, read-out: D4R Ki ± SEM; for D4/D2 / D4/D3: ratio of Ki values. The method, then:
Binding at dopamine D2-like receptors was determined using previously described methods. (Chen et al. “Tranylcypromine substituted cis-hydroxycyclobutylnaphthamides as potent and selective dopamine D(3) receptor antagonists.” J. Med. Chem. 2014, 57, 4962-4968) Membranes were prepared from HEK293 cells expressing human D2R, D3R or D4R, grown in a 50:50 mix of DMEM and Ham's F12 culture media, supplemented with 20 mM HEPES, 2 mM L-glutamine, 0.1 mM non-essential amino acids, 1× antibiotic/antimycotic, 10% heat-inactivated fetal bovine serum, and 200 μg/mL hygromycin (Life Technologies, Grand Island, N.Y.) and kept in an incubator at 37° C. and 5% CO2. Upon reaching 80-90% confluence, cells were harvested using pre-mixed Earle's Balanced Salt Solution (EBSS) with […] EDTA (Life Technologies) and centrifuged at 3000 rpm for 10 min at 21° C. The supernatant was removed and the pellet was resuspended in 10 mL hypotonic lysis buffer (5 mM MgCl2.6H2O, 5 mM Tris, pH 7.4 at 4° C.) and centrifuged at 20,000 rpm for 30 min at 4° C. The pellet was then resuspended in fresh EBSS buffer made from 8.7 g/L Earle's Balanced Salts without phenol red (US Biological, Salem, Mass.), 2.2 g/L sodium bicarbonate, pH to 7.4. A Bradford protein assay (Bio-Rad, Hercules, Calif.) was used to determine the protein concentration and membranes were diluted to 500 μg/mL and stored in a −80° C. freezer for later use.
Radioligand competition binding experiments were conducted using thawed membranes. Test compounds were freshly dissolved in 30% DMSO and 70% H2O to a stock concentration of 100 μM. To assist the solubilization of free-base compounds, 10 μl of glacial acetic acid was added along with the DMSO. Each test compound was then diluted into 13 half-log serial dilutions using 30% DMSO vehicle; final test concentrations ranged from 10 μM to 10 pM. Previously frozen membranes were diluted in fresh EBSS to a 100 μg/mL (for hD2R or hD3R) or 200 μg/mL (hD4R) stock for binding. Radioligand competition experiments were conducted in glass tubes containing 300 μl fresh EBSS buffer with 0.2 mM sodium metabisulfite, 50 μl of diluted test compound, 100 μl of membranes (10 μg total protein for hD2R or hD3R, 20 μg total protein for hD4R), and 50 μl of [^3H]N-methylspiperone (0.4 nM final concentration; Perkin Elmer). Nonspecific binding was determined using 10 μM butaclamol (Sigma-Aldrich, St. Louis, Mo.) and total binding was determined with 30% DMSO vehicle. All compound dilutions were tested in triplicate and the reaction incubated for one hour at room temperature. The reaction was terminated by filtration through Whatman GF/B filters, presoaked for one hour in 0.5% polyethylenimine, using a Brandel R48 filtering manifold (Brandel Instruments, Gaithersburg, Md.). The filters were washed 3 times with 3 mL of ice cold EBSS buffer and transferred to scintillation vials. 3 mL CytoScint liquid scintillation cocktail (MP Biomedicals, Solon, Ohio) was added and vials were counted using a Perkin Elmer Tri-Carb 2910 TR liquid scintillation counter (Waltham, Mass.). IC50 values for each compound were determined from dose-response curves and Ki values were calculated using the Cheng-Prusoff equation; these analyses were performed using GraphPad Prism version 5.00 for Windows (GraphPad Software, San Diego, Calif.). Reported Ki values were determined from least three independent experiments.

[2] abbreviates: Table 2b, read-out: Antagonist IC50 ± S.E.M.
The mark [3] stands for this setting: Table 1B, [3H]-N-methylspiperone competition, 96-well plates.
Setting [4] is: Table 1B, [3H]-N-methylspiperone competition, D2LR, 96-well plates.
The mark [5] stands for this setting: Table 2a, read-out: Antagonist IC50 ± SEM.
Where [6] appears, read: Table 1A, HEK 293 cells transfected with hD3R, [3H]N-methylspiperone.
The mark [7] stands for this setting: Table 1A, HEK 293 cells transfected with hD2LR, [3H]N-methylspiperone.

Read-outs that look alike come from different tables or passages of the source.

Sequence of human D4R (P21917 whole entry): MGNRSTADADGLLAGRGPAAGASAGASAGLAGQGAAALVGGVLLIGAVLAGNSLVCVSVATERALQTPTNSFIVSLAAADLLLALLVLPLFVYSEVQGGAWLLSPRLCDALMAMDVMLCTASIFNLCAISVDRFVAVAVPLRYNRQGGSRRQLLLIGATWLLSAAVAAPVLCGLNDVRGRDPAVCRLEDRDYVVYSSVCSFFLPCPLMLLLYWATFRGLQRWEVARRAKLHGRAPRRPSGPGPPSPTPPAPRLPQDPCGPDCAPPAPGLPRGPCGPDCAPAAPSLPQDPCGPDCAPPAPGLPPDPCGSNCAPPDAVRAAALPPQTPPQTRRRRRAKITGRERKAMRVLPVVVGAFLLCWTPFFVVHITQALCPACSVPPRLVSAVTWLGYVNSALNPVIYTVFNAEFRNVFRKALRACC
Sequence of 5-HT1A (P08908 whole entry, species assumed): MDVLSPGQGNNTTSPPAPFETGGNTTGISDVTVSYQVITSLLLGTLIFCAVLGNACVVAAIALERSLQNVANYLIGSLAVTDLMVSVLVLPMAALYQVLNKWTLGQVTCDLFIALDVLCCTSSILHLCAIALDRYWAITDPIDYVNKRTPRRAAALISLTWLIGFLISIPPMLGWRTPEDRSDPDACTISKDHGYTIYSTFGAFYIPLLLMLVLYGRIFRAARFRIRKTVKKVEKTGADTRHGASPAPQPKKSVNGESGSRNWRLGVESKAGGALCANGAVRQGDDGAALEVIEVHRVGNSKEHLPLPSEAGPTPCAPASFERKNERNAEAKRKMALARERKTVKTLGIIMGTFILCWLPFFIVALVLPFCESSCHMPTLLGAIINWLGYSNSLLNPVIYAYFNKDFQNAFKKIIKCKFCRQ
Sequence of human D3R (P35462 whole entry): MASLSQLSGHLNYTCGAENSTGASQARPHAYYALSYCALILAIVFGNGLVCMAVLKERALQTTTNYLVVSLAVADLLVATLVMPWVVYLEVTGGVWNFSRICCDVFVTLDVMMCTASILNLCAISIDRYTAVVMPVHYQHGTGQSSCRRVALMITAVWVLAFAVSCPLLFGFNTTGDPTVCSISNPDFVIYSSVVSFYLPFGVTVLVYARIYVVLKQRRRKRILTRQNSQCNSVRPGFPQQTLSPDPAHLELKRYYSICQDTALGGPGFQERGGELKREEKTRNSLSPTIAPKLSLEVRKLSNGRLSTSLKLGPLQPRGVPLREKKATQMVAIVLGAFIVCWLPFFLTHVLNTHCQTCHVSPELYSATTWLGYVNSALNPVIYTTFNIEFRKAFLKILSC
Sequence of human dopamine D3R (P35462 whole entry): as above
Sequence of human D2R (P14416 whole entry): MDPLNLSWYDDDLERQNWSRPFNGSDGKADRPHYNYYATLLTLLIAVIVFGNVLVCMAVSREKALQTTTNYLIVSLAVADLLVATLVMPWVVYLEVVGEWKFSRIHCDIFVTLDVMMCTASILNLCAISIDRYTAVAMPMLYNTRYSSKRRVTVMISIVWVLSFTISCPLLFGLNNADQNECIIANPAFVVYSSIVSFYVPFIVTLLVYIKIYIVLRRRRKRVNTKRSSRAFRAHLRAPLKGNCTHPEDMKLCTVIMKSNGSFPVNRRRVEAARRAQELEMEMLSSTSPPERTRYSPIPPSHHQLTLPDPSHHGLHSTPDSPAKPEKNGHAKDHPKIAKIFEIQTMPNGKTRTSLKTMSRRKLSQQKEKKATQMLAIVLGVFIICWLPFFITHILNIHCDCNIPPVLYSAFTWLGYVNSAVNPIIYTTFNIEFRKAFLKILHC

A word on the IC50: it is the concentration at which inhibition is half-maximal. In general, Ki refers to the equilibrium dissociation constant of an inhibitor or competing ligand from its target. In the case of `CCc1cc(Cl)c(OC)c(N2CCN(CC(F)CCNC(=O)c3cc4ccccc4o3)CC2)c1` (racemic) [Compound C4b, N-(4-(4-(3-chloro-5-ethyl-2-methoxyphenyl)piperazin-1-yl)-3-fluorobutyl)benzofuran-2-carboxamide], the IC50 at human dopamine D3R (setting [2]) stood at 490 ± 150 nM. For the same compound, the Ki at human D3R (setting [3]) was 89.9 ± 12.3 nM; at human D3R (Table 1C), 99.9 ± 13.4 nM; at 5-HT2A (Table 3b), 2990 ± 530 nM; on 5-HT2C (Table 3b) it was 1780 ± 390 nM; on 5-HT1A (Table 3b), 2660 ± 570 nM; on human D2R (setting [4]) it was 9740 ± 2100 nM. In addition, on human D2R (Table 1C), the Ki is 10800 ± 2290 nM. Further, the D2/D3 at human D3R (Table 1B) and on human D3R (Table 1C) was 108 each time. Further, in series [1], the “% intact/parent remaining” value amounted to 12%.
With `CCc1cc(Cl)c(OC)c(N2CCN(CC(O)CCNC(=O)c3cc4ccccc4o3)CC2)c1` (stereo not shown) [Compound 31, N-(4-(4-(3-Chloro-5-ethyl-2-methoxyphenyl)piperazin-1-yl)-3-hydroxybutyl)benzofuran-2-carboxamide], on human dopamine D3R (setting [5]), the IC50 was determined as 950 ± 350 nM. Moreover, the Ki on human D3R (setting [6]) stood at 36.1 ± 5 nM; at 5-HT2A (Table 3a), 42.9 ± 6.8 nM; on 5-HT2C (Table 3a) it was 268 ± 34 nM; on human D4R, 5280 ± 319 nM; on 5-HT1A (Table 3a), 2410 ± 830 nM; at human D2R (setting [7]), 1620 ± 339 nM. Also, the D2/D3 at human D3R (Table 1A) is 45. Moreover, at human D4R, the D4/D2 stood at 3.3. Besides, the D4/D3 on human D4R stood at 146.
For the compound `CCc1cc(Cl)c(OC)c(N2CCN(CCCCNC(=O)c3cc4ccccc4[nH]3)CC2)c1` [Compound 28, N-(4-(4-(3-Chloro-5-ethyl-2-methoxyphenyl)piperazin-1-yl)butyl)-1H-indole-2-carboxamide], the IC50 on human dopamine D3R (setting [5]) came to 330 ± 100 nM. In addition, the Ki at human D3R (setting [6]) turned out to be 0.341 ± 0.0312 nM; on 5-HT2A (Table 3a) it was 60.1 ± 9.5 nM; on 5-HT2C (Table 3a), 144 ± 37 nM; on human D4R it was 1040 ± 279 nM; on 5-HT1A (Table 3a), 2330 ± 700 nM; on human D2R (setting [7]) it was 27.8 ± 6.71 nM. The D2/D3 on human D3R (Table 1A) amounted to 82. For the same compound, on human D4R, the D4/D2 is recorded as 38. Moreover, the D4/D3 at human D4R was found to be 3065.
`CCc1cccc(N2CCN(CC(O)CCNC(=O)c3cc4ccccc4[nH]3)CC2)c1Cl` (racemic) [Compound 19, N-(4-(4-(2-chloro-3-ethylphenyl)piperazin-1-yl)-3-hydroxybutyl)-1H-indole-2-carboxamide]: the Ki was found to be 28.1 ± 9.7 nM at 5-HT2A (Table 3a); 113 ± 33 nM at 5-HT2C (Table 3a); 5520 ± 1660 nM at human D4R; 880 ± 160 nM at 5-HT1A (Table 3a); 151 ± 25.4 nM on human D2R (setting [7]); 119 ± 11.1 nM on human D2R (setting [4]). For the same compound, the Ki on human D2R (Table 1C) worked out at 132 ± 12.7 nM.
With `CCc1cc(Cl)c(OC)c(N2CCN(CCCCNC(=O)c3cc4ccccc4o3)CC2)c1` [Compound 30, N-(4-(4-(3-Chloro-5-ethyl-2-methoxyphenyl)piperazin-1-yl)butyl)benzofuran-2-carboxamide], the IC50 on human dopamine D3R (setting [5]) turned out to be 420 ± 130 nM. In addition, the Ki stood at 3.19 ± 0.268 nM at human D3R (setting [6]); 25 ± 6.6 nM on 5-HT2A (Table 3a); 55 ± 17 nM on 5-HT2C (Table 3a); 714 ± 293 nM at human D4R; 560 ± 170 nM at 5-HT1A (Table 3a); 137 ± 9 nM at human D2R (setting [7]). The D2/D3 on human D3R (Table 1A) is reported as 43. The D4/D2 on human D4R came out at 5.2. Besides, the D4/D3 on human D4R was found to be 224.
`CCc1cc(Cl)c(OC)c(N2CCN(CC(F)CCNC(=O)c3cc4ccccc4[nH]3)CC2)c1` (racemic) [Compound C4a, N-(4-(4-(3-chloro-5-ethyl-2-methoxyphenyl)piperazin-1-yl)-3-fluorobutyl)-1H-indole-2-carboxamide]: at human dopamine D3R (setting [2]), the IC50 was 510 ± 130 nM. The Ki on human D3R (setting [3]) came to 28 ± 5.53 nM; on human D3R (Table 1C), 27.9 ± 5.64 nM; on 5-HT2A (Table 3b), 6600 ± 1400 nM; at 5-HT1A (Table 3b) it was 9500 ± 3000 nM; at human D2R (setting [4]) it was 27100 ± 11600 nM; at human D2R (Table 1C), 20800 ± 7060 nM. Further, the D2/D3 on human D3R (Table 1B) was determined as 968; on human D3R (Table 1C) it was 746. Further, in series [1], the “% intact/parent remaining” value is on record as about 75%.
